The supplement of paper PMC10307832

How the values were obtained:
Assay in all cases: relative viability (nuclei count vs DMSO), 5 days (fraction); higher = more cells survive
[1] = system: NCI-H1793
In short: (§1)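 Five library-drug doses in √10 steps were combined with a fixed anchor-drug dose, or a single drug was given alone, by pin tool to lung cancer cell lines in 1536-well plates the day after seeding. Nuclei were stained and counted after 5 days. Relative viability is the nuclei count in treated wells over that in vehicle wells, taken as the median of duplicate plates.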

[2] = system: LCLC-97TM1
In short: as §1

[3] = system: NCI-H1915
In short: as §1

[4] = system: NCI-H1944
In short: as §1

[5] = system: NCI-H23
In short: as §1

[6] = system: HARA
In short: as §1

[7] = system: SK-LU-1
In short: as §1

[8] = system: BEN
In short: as §1

[9] = system: LXF-289
In short: as §1

[10] = system: NCI-H650
In short: as §1

[11] = system: NCI-H2170
In short: as §1

[12] = system: NCI-H2342
In short: as §1

[13] = system: NCI-H2023
In short: as §1

[14] = system: NCI-H1666
In short: as §1

[15] = system: NCI-H322M
In short: as §1

[16] = system: A-427
In short: as §1

[17] = system: NCI-H2126
In short: as §1

[18] = system: NCI-H1395
In short: as §1

[19] = system: LOU-NH91
In short: as §1

[20] = system: LU99A
In short: as §1

[21] = system: PC-3 [JPC-3]
In short: as §1

[22] = system: NCI-H441
In short: as §1

[23] = system: NCI-H1755
In short: as §1

[24] = system: NCI-H460
In short: as §1

In the case of CCCCCCCCCCCC1=C(O)C(=O)C=C(O)C1=O [Embelin] + O=C(CCCCCCC(=O)Nc1ccccc1)NO [Vorinostat] (partner 1 µM), the relative viability ([1]; first compound 0.08 µM) is reported as 0.728, the relative viability ([1]; first compound 0.8 µM) is reported as 0.842 and the relative viability ([1]; first compound 2.53 µM) is reported as 0.754. For the same molecule, the relative viability ([1]; first compound 8 µM) was 0.439, the relative viability ([2]; first compound 0.08 µM) was 0.789 and the relative viability ([2]; first compound 0.8 µM) was 1.16. It also gave a relative viability ([2]; first compound 2.53 µM) of 0.652, a relative viability ([2]; first compound 8 µM) of 0.496 and a relative viability ([3]; first compound 0.08 µM) of 0.563. The relative viability ([3]; first compound 0.8 µM) was 0.544, the relative viability ([3]; first compound 2.53 µM) was 0.521 and the relative viability ([3]; first compound 8 µM) was 0.473. The relative viability ([4]; first compound 0.08 µM) was 0.577, the relative viability ([4]; first compound 0.8 µM) was 0.643 and the relative viability ([4]; first compound 2.53 µM) was 0.656. For the same molecule, the relative viability ([4]; first compound 8 µM) was 0.589, the relative viability ([5]; first compound 0.08 µM) was 0.58 and the relative viability ([5]; first compound 0.8 µM) was 0.604. The relative viability ([5]; first compound 2.53 µM) was 0.584, the relative viability ([5]; first compound 8 µM) was 0.433 and the relative viability ([6]; first compound 0.08 µM) was 0.559. The relative viability ([6]; first compound 0.8 µM) was 0.603, the relative viability ([6]; first compound 2.53 µM) was 0.545 and the relative viability ([6]; first compound 8 µM) was 0.582. For the same molecule, the relative viability ([7]; first compound 0.08 µM) was 0.892, the relative viability ([7]; first compound 0.8 µM) was 0.954 and the relative viability ([7]; first compound 2.53 µM) was 0.75. The relative viability ([7]; first compound 8 µM) was 0.518, the relative viability ([8]; first compound 0.08 µM) was 0.57 and the relative viability ([8]; first compound 0.8 µM) was 0.613. The relative viability ([8]; first compound 2.53 µM) was 0.647, the relative viability ([8]; first compound 8 µM) was 0.515 and the relative viability ([9]; first compound 0.08 µM) was 0.803. It also gave a relative viability ([9]; first compound 0.8 µM) of 0.742, a relative viability ([9]; first compound 2.53 µM) of 0.715 and a relative viability ([9]; first compound 8 µM) of 0.809. The relative viability ([10]; first compound 0.08 µM) was 0.393, the relative viability ([10]; first compound 0.8 µM) was 0.557 and the relative viability ([10]; first compound 2.53 µM) was 0.354. It also gave a relative viability ([10]; first compound 8 µM) of 0.484, a relative viability ([11]; first compound 0.08 µM) of 0.773 and a relative viability ([11]; first compound 0.8 µM) of 0.784. For the same molecule, the relative viability ([11]; first compound 2.53 µM) was 0.922, the relative viability ([11]; first compound 8 µM) was 0.754 and the relative viability ([12]; first compound 0.08 µM) was 0.766. It also gave a relative viability ([12]; first compound 0.8 µM) of 0.828, a relative viability ([12]; first compound 2.53 µM) of 0.887 and a relative viability ([12]; first compound 8 µM) of 0.73. It also gave a relative viability ([13]; first compound 0.08 µM) of 0.622, a relative viability ([13]; first compound 0.8 µM) of 0.701 and a relative viability ([13]; first compound 2.53 µM) of 0.565. The relative viability ([13]; first compound 8 µM) was 0.392, the relative viability ([14]; first compound 0.08 µM) was 1.07 and the relative viability ([14]; first compound 0.8 µM) was 1.03. For the same molecule, the relative viability ([14]; first compound 2.53 µM) was 1.09, the relative viability ([14]; first compound 8 µM) was 1.05 and the relative viability ([15]; first compound 0.08 µM) was 0.873. It also gave a relative viability ([15]; first compound 0.8 µM) of 0.954, a relative viability ([15]; first compound 2.53 µM) of 1.01 and a relative viability ([15]; first compound 8 µM) of 0.801. The relative viability ([16]; first compound 0.08 µM) was 0.856, the relative viability ([16]; first compound 0.8 µM) was 0.899 and the relative viability ([16]; first compound 2.53 µM) was 0.88. It also gave a relative viability ([16]; first compound 8 µM) of 0.441, a relative viability ([17]; first compound 0.08 µM) of 0.803 and a relative viability ([17]; first compound 0.8 µM) of 0.763. The relative viability ([17]; first compound 2.53 µM) was 0.796, the relative viability ([17]; first compound 8 µM) was 0.6 and the relative viability ([18]; first compound 0.08 µM) was 0.615. It also gave a relative viability ([18]; first compound 0.8 µM) of 1, a relative viability ([18]; first compound 2.53 µM) of 0.48 and a relative viability ([18]; first compound 8 µM) of 0.521. The relative viability ([19]; first compound 0.08 µM) was 0.939, the relative viability ([19]; first compound 0.8 µM) was 1.2 and the relative viability ([19]; first compound 2.53 µM) was 0.933. For the same molecule, the relative viability ([19]; first compound 8 µM) was 0.876, the relative viability ([20]; first compound 0.08 µM) was 0.56 and the relative viability ([20]; first compound 0.8 µM) was 0.461. For the same molecule, the relative viability ([20]; first compound 2.53 µM) was 0.586, the relative viability ([20]; first compound 8 µM) was 0.336 and the relative viability ([21]; first compound 0.08 µM) was 0.614. The relative viability ([21]; first compound 0.8 µM) was 0.95, the relative viability ([21]; first compound 2.53 µM) was 0.68 and the relative viability ([21]; first compound 8 µM) was 0.604. The relative viability ([22]; first compound 0.08 µM) was 0.691, the relative viability ([22]; first compound 0.8 µM) was 0.905 and the relative viability ([22]; first compound 2.53 µM) was 0.841. It also gave a relative viability ([22]; first compound 8 µM) of 0.657, a relative viability ([23]; first compound 0.08 µM) of 0.723 and a relative viability ([23]; first compound 0.8 µM) of 0.813. It also gave a relative viability ([23]; first compound 2.53 µM) of 0.809, a relative viability ([23]; first compound 8 µM) of 0.574 and a relative viability ([24]; first compound 0.08 µM) of 0.687. The relative viability ([24]; first compound 0.8 µM) was 0.948, the relative viability ([24]; first compound 2.53 µM) was 0.933 and the relative viability ([24]; first compound 8 µM) was 0.397.
